Experimental data published in patent US10441597B2, “Ciclesonide for the treatment of airway disease in horses” (Boehringer Ingelheim Vetmedica GmbH, priority 2012, dated 2019).

How the values were obtained:
RAO horses [1] = experiment: Moldy hay challenge study in RAO horses: clinical score (breathing effort score, weighted clinical score); format: in vivo, horse; settings: Budesonide study, after 7 and 14 days
From the text: (§1) The commercially available […]® is used in the study.

RAO horses [2] = experiment: Moldy hay challenge study in RAO horses: lung function variables (transpulmonary pressure, lung resistance, lung elastance); format: in vivo, horse
From the text: as §1

CCCC1O[C@@H]2C[C@H]3[C@@H]4CCC5=CC(=O)C=C[C@]5(C)[C@H]4[C@@H](O)C[C@]3(C)[C@]2(C(=O)CO)O1 (some centres unmarked) [budesonide]
Clinical score compared to pretreatment values (RAO horses [1]; all three budesonide groups (450/900/1800 μg/horse twice daily), p=0.002 to p<0.0001): significantly reduced | Difference in clinical score versus dexamethasone group (RAO horses [1]; budesonide 900 and 1800 μg/horse twice daily): no significant difference | All lung function variables compared to pretreatment values (RAO horses [2]; Budesonide study, budesonide 1800 μg/horse ex RESPIMAT twice daily inhaled, after 14 days, p≤0.0001): significantly reduced | Difference in lung function variables versus dexamethasone group (RAO horses [2]; Budesonide study, budesonide 1800 μg/horse twice daily, after 7 or 14 days): no significant difference | Efficacy relative to dexamethasone measured in lung function variables and clinical score (RAO horses [2]; moldy hay challenge model, RESPIMAT inhaler with Equine Inhaler device, examples 1 and 3): comparable efficacy
